Laboratory results published in patent publication US9475779B2, “Substituted bicyclic dihydropyrimidinones and their use as inhibitors of neutrophil elastase activity” (priority 2014, dated 2016).
pIC50: −log10 of the molar value. Read-outs that look alike come from different tables or passages of the source.

Molecular target: neutrophil elastase (Homo sapiens (Human), UniProt P08246)
Test: biochemical
Format: biochemical
[1] = Neutrophil Elastase assay, substrate MeOSuc-Ala-Ala-Pro-Val-AMC, read-out: IC50

neutrophil elastase, sequence (P08246 whole entry, looked up): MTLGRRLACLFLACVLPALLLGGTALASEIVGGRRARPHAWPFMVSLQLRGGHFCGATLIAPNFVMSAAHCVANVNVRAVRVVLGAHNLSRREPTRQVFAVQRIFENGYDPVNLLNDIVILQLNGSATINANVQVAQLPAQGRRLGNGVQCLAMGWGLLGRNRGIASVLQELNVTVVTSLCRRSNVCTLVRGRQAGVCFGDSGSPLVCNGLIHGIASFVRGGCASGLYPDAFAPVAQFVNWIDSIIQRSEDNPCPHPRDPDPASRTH
Experimental: Human Neutrophil Elastase Assay
All other materials were of the highest grade commercially available.
The following buffers were used: Compound buffer: 100 mM Tris, 500 mM NaCl, adjusted to pH 7.5; Assay buffer: 100 mM Tris, 500 mM NaCl, adjusted to pH 7.5, containing 0.01% BSA.
Assay conditions: Test compounds were prediluted in DMSO and subsequently in compound buffer (5% DMSO final). […] After inactivation of the enzyme, fluorescence intensities were measured at 380 nm excitation and 460 nm emission wavelengths.
Each plate contains wells with a high value control (DMSO+enzyme+substrate) and wells with a low value control (DMSO+inactivated enzyme+substrate). IC50 values were estimated using a sigmoidal concentration response curve with variable slope. Means of low values were taken as 0%, means of high values as 100%.

Compound | pIC50 [1] | also measured
CN1C(=O)N(c2cccc(C(F)(F)F)c2)C2=C(C(=O)CC2)C1c1ccc(C#N)cc1S(=O)(=O)CCO (single isomer, unassigned) [Example B.1.2A] |  | pIC50 (IC50, Neutrophil Elastase assay, substrate MeOSuc-Ala-Ala-Pro-Val-AMC): 6.65
CCNC(=O)N1C(=O)N(c2ccnc(C(F)(F)F)c2)C2=C(C(=O)CC2)C1c1ccc(C#N)cc1S(C)(=O)=O (single isomer, unassigned) [D.4.10] | > 9.00 | 
CCS(=O)(=O)c1cc(C#N)ccc1C1C2=C(CCC2=O)N(c2ccnc(C(F)(F)F)c2)C(=O)N1C(=O)NC (stereo not shown) [Example D.4, 4-(4-Cyano-2-ethanesulfonyl-phenyl)-2,5-dioxo-1-(2-trifluoromethyl-pyridin-4-yl)-1,2,4,5,6,7-hexahydro-cyclopentapyrimidine-3-carboxylic acid methylamide] | > 9.00 | 
CN1C(=O)N(c2cccc(C(F)(F)F)c2)C2=C(C(=O)CC2)C1c1ccc(C#N)cc1[S+](C)[O-] (single isomer, unassigned) [Example C.1A, 3-Methanesulfinyl-4-[3-methyl-2,5-dioxo-1-(3-trifluoromethyl-phenyl)-2,3,4,5,6,7-hexahydro-1H-cyclopentapyrimidin-4-yl]-benzonitrile] | 5.74 | 
CC[S+]([O-])c1cc(C#N)ccc1C1NC(=O)N(c2cccc(C(F)(F)F)c2)C2=C1C(=O)CC2 (single isomer, unassigned) [Example C.4.1, 4-[2,5-Dioxo-1-(3-trifluoromethyl-phenyl)-2,3,4,5,6,7-hexahydro-1H-cyclopentapyrimidin-4-yl]-3-ethanesulfinyl-benzonitrile] |  | pIC50 (read-out: IC50): 8.28
COCCS(=O)(=O)c1cc(C#N)ccc1C1NC(=O)N(c2cccc(C(F)(F)F)c2)C2=C1C(=O)CC2 (stereo not shown) [B.1.1] | 8.24 | 
CN1C(=O)N(c2cccc(C(F)(F)F)c2)C2=C(C(=O)CC2)C1c1ccc(C#N)cc1[S+](C)[O-] (single isomer, unassigned) [Example C.2B, 3-Methanesulfinyl-4-[3-methyl-2,5-dioxo-1-(3-trifluoromethyl-phenyl)-2,3,4,5,6,7-hexahydro-1H-cyclopentapyrimidin-4-yl]-benzonitrile] | 7.89 | 
CS(=O)(=O)c1cc(C#N)ccc1C1C2=C(CCC2=O)N(c2cccc(C(F)(F)F)c2)C(=O)N1CCO (stereo not shown) [Example E.1, 4-[3-(2-Hydroxy-ethyl)-2,5-dioxo-1-(3-trifluoromethyl-phenyl)-2,3,4,5,6,7-hexahydro-1H-cyclopentapyrimidin-4-yl]-3-methanesulfonyl-benzonitrile] | > 9.00 | 
CNC(=O)N1C(=O)N(c2cncc(Cl)c2)C2=C(C(=O)CC2)C1c1ccc(C#N)cc1S(C)(=O)=O (stereo not shown) [D.4.8] |  | pIC50 (read-out: IC50): > 9.00
CN1C(=O)N(c2cncc(Cl)c2)C2=C(C(=O)CC2)C1c1ccc(C#N)cc1S(C)(=O)=O (stereo not shown) [D.3.4] | 8.09 | 
CCNC(=O)N1C(=O)N(c2ccnc(C(F)(F)F)c2)C2=C(C(=O)CC2)C1c1ccc(C#N)cc1S(=O)(=O)CC (single isomer, unassigned) [Example D.4.1B, 4-(4-cyano-2-ethanesulfonyl-phenyl)-2,5-dioxo-1-(2-trifluoromethyl-pyridin-4-yl)-1,2,4,5,6,7-hexahydro-cyclopentapyrimidine-3-carboxylic acid ethylamide] | 6.47 | 
CNC(=O)N1C(=O)N(c2cncc(C(F)(F)F)c2)C2=C(C(=O)CC2)C1c1ccc(C#N)cc1S(C)(=O)=O (stereo not shown) [D.4.2] | > 9.00 | 
CC[S+]([O-])c1cc(C#N)ccc1C1C2=C(CCC2=O)N(c2cccc(C(F)(F)F)c2)C(=O)N1C(=O)NC (single isomer, unassigned) [Example C.6.2, 4-(4-Cyano-2-ethanesulfinyl-phenyl)-2,5-dioxo-1-(3-trifluoromethyl-phenyl)-1,2,4,5,6,7-hexahydro-cyclopentapyrimidine-3-carboxylic acid methylamide] |  | pIC50 (read-out: IC50): > 9.00
